Drawing on patent US6458951B2, “Pyrazolopyrimidinone cGMP PDE5 inhibitors for the treatment of sexual dysfunction” (Pfizer Inc, priority 1998, dated 2002), this text covers melting point and IC50 for eleven compounds.

Test system in one data set: not given
Assay: not given
Conditions: not given
Compound `CCc1c2nc(-c3cc(S(=O)(=O)N4CCN(CC)CC4)cnc3OCCOC)[nH]c(=O)c2nn1Cc1ccccn1` (hydrate or solvate) [Example 4, 3-Ethyl-5-[5-(4-ethylpiperazin-1-ylsulphonyl)-2-(2-methoxyethoxy)pyridin-3-yl]-2-(Pyridin-2-yl)methyl-2,6-dihydro-7H-pyrazolo[4,3-d]pyrimidin-7-one] yielded a melting point of 139 to 140 °C.

The target of a further data set is cGMP PDE5 (UniProt O76074). Nature of the data set: Phosphodiesterase (PDE) inhibitory activity, in vitro, cGMP PDE5. Format: biochemical, human or rabbit. To be noted: in vitro activity as inhibitors of cGMP PDE5. As for the experimental part:
In vitro PDE inhibitory activities against cyclic guanosine 3′,5′-monophosphate (cGMP) and cyclic adenosine 3′,5′-monophosphate (cAMP) phosphodiesterases were determined by measurement of their IC50 values (the concentration of compound required for 50% inhibition of enzyme activity).
The required PDE enzymes were isolated from a variety of sources, including human corpus cavernosum, human and rabbit platelets, human cardiac ventricle, human skeletal muscle and bovine retina, essentially by the method of W. J. Thompson and M. M. Appleman (Biochem., 1971, 10, 311). In particular, the cGMP-specific PDE (PDE5) and the cGMP-inhibited cAMP PDE (PDE3) were obtained from human corpus cavernosum tissue, human platelets or rabbit platelets; the cGMP-stimulated PDE (PDE2) was obtained from human corpus cavernosum; the calcium/calmodulin (Ca/CAM)-dependent PDE (PDE1) from human cardiac ventricle; the cAMP-specific PDE (PDE4) from human skeletal muscle; and the photoreceptor PDE (PDE6) from bovine retina.
Assays were performed using a modification of the “batch” method of W. J. Thompson et al. (Biochem., 1979, 18, 5228).
Consider `CCCc1c2nc(-c3cc(S(=O)(=O)N4CCN(CC)CC4)cnc3OCC)[nH]c(=O)c2nn1Cc1ncccn1` [Example 43b, 5-[2-Ethoxy-5-(4-ethylpiperazin-1-ylsulphonyl)pyridin-3-yl]-3-n-propyl-2-(pyrimidin-2-yl)methyl-2,6-dihydro-7H-pyrazolo[4,3-d]pyrimidin-7-one], for which 3.6 nM corresponded to half-maximal inhibition (IC50).
With `CCCc1c2nc(-c3cc(S(=O)(=O)N4CCN(CC)CC4)cnc3OCCOCC)[nH]c(=O)c2nn1Cc1ccccn1` [Example 10, 5-[2-(2-Ethoxyethoxy)-5-(4-ethylpiperazin-1-ylsulphonyl)pyridin-3-yl]-3-n-propyl-2-(pyridin-2-yl)methyl-2,6-dihydro-7H-pyrazolo[4,3-d]pyrimidin-7-one], the 50% inhibitory concentration (IC50) amounted to 10.1 nM.
With `CCc1c2nc(-c3cc(S(=O)(=O)N4CCN(CC)CC4)cnc3N3CCCC3)[nH]c(=O)c2nn1Cc1ccccn1` [Example 153], the IC50 was determined as 7.2 nM.
`CCc1c2nc(-c3cc(S(=O)(=O)N4CCN(CC)CC4)cnc3O[C@H](C)[C@@H](C)OC)[nH]c(=O)c2nn1C` [Example 98, 3-Ethyl-5-[5-(4-ethylpiperazin-1-ylsulphonyl)-2-(2-(R)-methoxy-1-(R)-methylpropoxy)pyridin-3-yl]-2-methyl-2,6-dihydro-7H-pyrazolo[4,3-d]pyrimidin-7-one] came in with a 50% inhibitory concentration (IC50) of 7 nM. The IC50 values of the last two compounds are within 1.5-fold of each other.
In turn, `CCc1nn(Cc2nccn2C)c2c(=O)[nH]c(-c3cc(S(=O)(=O)N4CCN(CC)CC4)cnc3OCCOC)nc12` [Example 46, 3-Ethyl-5-[5-(4-ethylpiperazin-1-ylsulphonyl)-2-(2-methoxyethoxy)pyridin-3-yl]-1-(1-methylimidazol-2-yl)methyl-1,6-dihydro-7H-pyrazolo[4,3-d]pyrimidin-7-one] registered an IC50 of 8.1 nM. The IC50 values of the last two compounds are within 1.5-fold of each other.
Compound `CCCc1nn(Cc2ncccn2)c2c(=O)[nH]c(-c3cc(S(=O)(=O)N4CCN(CC)CC4)cnc3OCCOC)nc12` [Example 48, 5-[5-(4-Ethylpiperazin-1-ylsulphonyl)-2-(2-methoxyethoxy)pyridin-3-yl]-3-n-propyl-1-(pyrimidin-2-yl)methyl-1,6-dihydro-7H-pyrazolo[4,3-d]pyrimidin-7-one] registered an IC50 of 6.9 nM.
The compound `CCc1c2nc(-c3cc(S(=O)(=O)N4CCN(CC)CC4)cnc3O[C@@H]3CCOC3)[nH]c(=O)c2nn1Cc1ccccn1` [Example 18, 3-Ethyl-5-[5-(4-ethylpiperazin-1-ylsulphonyl)-2-(tetrahydrofuran-3(R)-yloxy)pyridin-3-yl]-2-(pyridin-2-yl)methyl-2,6-dihydro-7H-pyrazolo[4,3-d]pyrimidin-7-one] displayed a half-maximal inhibitory concentration (IC50) of 8.9 nM.
For the compound `CCc1c2nc(-c3cc(S(=O)(=O)N4CCN(CC)CC4)cnc3OCCCOC)[nH]c(=O)c2nn1Cc1ccccn1` [Example 11, 3-Ethyl-5-[5-(4-ethylpiperazin-1-ylsulphonyl)-2-(3-methoxyprop-1-oxy)-pyridin-3-yl]-2-(pyridin-2-yl)methyl-2,6-dihydro-7H-pyrazolo[4,3-d]pyrimidin-7-one], the midpoint of inhibition, the IC50, lay at 10 nM.
In the case of `CCCc1nn(C)c2c(=O)[nH]c(-c3cc(S(=O)(=O)N4CCN(CC)CC4)cnc3OCc3ccccn3)nc12` [Example 127, 5-{5-(4-Ethylpiperazin-1-ylsulphonyl)-2-[(pyridin-2-yl)methoxy]pyridin-3-yl}-1-methyl-3-n-propyl-1,6-dihydro-7H-pyrazolo[4,3-d]pyrimidin-7-one], half-maximal inhibition (IC50) was put at 7.3 nM.
`CCc1c2nc(-c3cc(S(=O)(=O)N4CCN(CC)CC4)cnc3OCc3ccccn3)[nH]c(=O)c2nn1C` [Example 99, 3-Ethyl-5-[5-(4-ethylpiperazin-1-ylsulphonyl)-2-(pyridin-2-yl)methoxypyridin-3-yl]-2-methyl-2,6-dihydro-7H-pyrazolo[4,3-d]pyrimidin-7-one]: the IC50 is 5.7 nM.
